Two compounds from article PMC12865225 (Clinical and Translational Science, 2026) can be followed below.

The target of one data set is T1, OATP1B1 (Homo sapiens, UniProt Q9Y6L6).
T1 construct: expressed in transfected cells; host or cells: HEK293 (recombinant baculovirus-mediated transduction)
T1 sequence (Q9Y6L6 1-691): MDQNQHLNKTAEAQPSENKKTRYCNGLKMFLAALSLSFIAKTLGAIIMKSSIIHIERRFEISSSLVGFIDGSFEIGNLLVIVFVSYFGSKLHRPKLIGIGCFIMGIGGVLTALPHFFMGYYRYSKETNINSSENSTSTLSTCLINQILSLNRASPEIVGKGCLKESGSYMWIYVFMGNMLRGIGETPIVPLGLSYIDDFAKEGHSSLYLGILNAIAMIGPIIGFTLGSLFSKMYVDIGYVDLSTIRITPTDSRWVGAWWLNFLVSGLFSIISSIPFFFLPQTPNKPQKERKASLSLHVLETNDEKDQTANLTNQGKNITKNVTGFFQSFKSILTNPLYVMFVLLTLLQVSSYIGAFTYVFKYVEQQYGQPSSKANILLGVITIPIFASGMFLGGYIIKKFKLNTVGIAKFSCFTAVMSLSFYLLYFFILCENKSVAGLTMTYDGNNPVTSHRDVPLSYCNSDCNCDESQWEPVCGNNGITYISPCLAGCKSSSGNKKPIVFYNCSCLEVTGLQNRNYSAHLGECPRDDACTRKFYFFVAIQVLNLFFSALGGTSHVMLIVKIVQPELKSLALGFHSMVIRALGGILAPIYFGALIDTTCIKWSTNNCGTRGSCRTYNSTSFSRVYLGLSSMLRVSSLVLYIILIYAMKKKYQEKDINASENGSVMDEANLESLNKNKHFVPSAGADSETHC
The data set can be described thus: Uptake transport assay in OATP1B1-expressing HEK293 cells. It counts as cell-based. The settings on record: for transport by OATP1B1: 2 and 50 μM, 10 min. How it is done:
(§1) The human transporters OATP1B1, OATP1B3, OATP2B1, and OAT1‐OAT4 and a negative control protein (enhanced yellow fluorescent protein, eYFP) were transiently expressed in human embryonic kidney 293 (HEK293) cells by recombinant baculovirus‐mediated transduction. Baculoviruses carrying human genes for the transporters were prepared as reported previously. HEK293 cells were cultured in DMEM containing 10% fetal bovine serum at 37°C and 5% CO2 and passaged two to three times per week. For the transport studies, 0.05 × 10^6 cells for 48‐well plates (OATPs) or 0.06 × 10^6 cells for 24‐well plates (OATs) were seeded onto cell‐culture treated well plates coated with poly‐D‐lysine. After 1 day, cells were transduced to produce recombinant proteins by changing media to DMEM containing 30 μL (48‐well plates) or 60 μL (24‐well plates) of recombinant baculovirus and 3 mM (OATs) or 5 mM (OATPs) sodium butyrate in a total media volume of 500 μL. The cells were cultured for a further 2 days before the transport assays.
(§2) For the transport studies, media were removed and cells were washed once with warm transport uptake buffer (TP‐buffer—pH 7.4 HBSS with 25 mM HEPES and 4 mM sodium bicarbonate). Each experiment included triplicate (OATP) or duplicate (OAT) samples for every test condition. The uptake was started by removing liquid from wells and applying warm TP‐buffer (200 μL for 24‐well plates or 125 μL for 48‐well plates) containing a test compound to cells. Transport assays were terminated after a pre‐specified incubation time (reported in figure legends) by removing substrate solution and washing cells three times with cold TP‐buffer (300 μL for 48‐well plates and 400 μL for 24‐well plates). For the liquid chromatography mass spectrometry (LC–MS) analysis, compounds were extracted from cells with 125 μL (48‐well plates) or 250 μL (24‐well plates) of an ultrapure‐water solution containing 75% methanol and 0.1% formic acid, shaking at 250 RPM for 30 min. […] Samples were transferred to well plates, centrifuged at 3000 g for 30 min, and transferred to a new well plate for the analysis.
(§3) Equation (2) (the Michaelis–Menten equation) was fit to the transport kinetic assay data. […] (2) Uptake=Vmax×S/Km+S

In another data set the target is T2, OAT3 (Homo sapiens, UniProt Q8TCC7).
T2 sequence (Q8TCC7 1-542): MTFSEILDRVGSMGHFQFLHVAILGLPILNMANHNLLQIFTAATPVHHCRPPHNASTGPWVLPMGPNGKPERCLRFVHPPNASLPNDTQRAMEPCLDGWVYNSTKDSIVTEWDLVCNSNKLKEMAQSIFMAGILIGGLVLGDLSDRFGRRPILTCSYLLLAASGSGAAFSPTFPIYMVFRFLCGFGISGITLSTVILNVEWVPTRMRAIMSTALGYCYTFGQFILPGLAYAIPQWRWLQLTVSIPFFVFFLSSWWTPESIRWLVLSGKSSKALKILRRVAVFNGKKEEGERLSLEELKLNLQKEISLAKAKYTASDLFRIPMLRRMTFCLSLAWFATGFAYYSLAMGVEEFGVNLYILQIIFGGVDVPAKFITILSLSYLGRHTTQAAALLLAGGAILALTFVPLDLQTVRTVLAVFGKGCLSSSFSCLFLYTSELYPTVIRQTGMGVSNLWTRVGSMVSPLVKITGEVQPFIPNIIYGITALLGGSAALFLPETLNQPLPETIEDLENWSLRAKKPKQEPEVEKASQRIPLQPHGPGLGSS
The data set can be described thus: Uptake transport assay in OAT3-expressing HEK293 cells. The settings on record: for transport by OAT3: 2 and 50 μM, 10 min; for Vmax (pmol/106 cells/min) OAT3: uptake, 2 min. On the procedure: as §1, §2, §3

With `Cc1onc(-c2c(Cl)cccc2Cl)c1C(=O)N[C@@H]1C(=O)N2[C@@H]1SC(C)(C)[C@@H]2C(=O)O` [Dicloxacillin], at OATP1B1, the “transport by OATP1B1” value was “transported”. The “Vmax (pmol/106 cells/min) OATP1B1” value at OATP1B1 (uptake, 2 min) stood at 15.9 pmol/106 cells/min. Further, on OAT3, the “transport by OAT3” value is “transported” and the “Vmax (pmol/106 cells/min) OAT3” value worked out at 296 pmol/106 cells/min.
In the case of `Cc1onc(-c2c(F)cccc2Cl)c1C(=O)N[C@@H]1C(=O)N2[C@@H]1SC(C)(C)[C@@H]2C(=O)O` [Flucloxacillin], the “transport by OATP1B1” value at OATP1B1 is reported as “transported”. Further, on OATP1B1 (uptake, 2 min), the Km (usually the substrate concentration at which the rate is half of its maximum) was in the range of 10 to 18 µM and the “Vmax (pmol/106 cells/min) OATP1B1” value worked out at 23.5 pmol/106 cells/min. Moreover, at OAT3, the “transport by OAT3” value is “transported” and the “Vmax (pmol/106 cells/min) OAT3” value was 277 pmol/106 cells/min.
